Series [1] concerns MCF7 cells.
Series [2] relates to MDA-MB-468 cells.
The target of series [3] is T1, full-length Akt1 (inactive) (Homo sapiens, UniProt P31749).
T1 construct: recombinant full-length human Akt1 a containing N-terminal His6 tag; His6 (N); purchased Upstate, UK #14-279; host or cells: baculovirus infected Sf21 insect cells
The experiment in a line: Biochemical Akt1 assay (full-length Akt1 inactive, PDK1-dependent activation, IMAP). Conditions: PDK1 and PIP3 vesicles, 50 μM ATP; read-out: Inhibition of Akt1 activation (full-length Akt1, inactive): IC50. The method, then:
The enzyme is purified using Ni2+/NTA-agarose (Upstate, UK; #14-279).
The enzyme is purified using Ni2+/NTA-agarose.
PDK1-dependent activation and subsequent enzymatic activity of Akt1: Activity of purified human Akt1 is routinely measured in an assay in which the enzyme is first activated by PDK1 in the presence of phosphatidylinositol-3,4,5-triphosphate (PIP3). Once activated, Akt1-dependent phosphorylation of a fluorescence labelled peptide substrate is measured by fluorescence polarisation using the IMAP technology (Molecular Devices).
The phospholipids are prepared as follows: 5 mg DOPC/DOPS are solved in 200 μl 10 mM Tris (pH 7.4) and 300 μg PIP3 are resuspended in 950 μl 10 mM Tris (pH 7.4) by pipetting. 950 μl solved PIP3 are mixed with 50 μl solved DOPC/DOPS and incubated for 2 h at a temperature below 20° C. Then the mixture is subjected to sonification for 30 min. at max. power until a translucent phopholipid vesicle preparation is obtained. Aliquots of the vesicle suspension are frozen at -80° C. until needed, likewise the solved DOPC/DOPS.
Assays are performed in 384-well plates. Incubations are carried out for 60 min. at room temperature. The reaction buffer mixture contained in a final volume of 25 μl: 10 mM Tris pH 7,4, 10 mM MgCl2. 1 mM DTT, and 0.1 mg/ml BSA. In contrast the activation buffer contained: 50 ng/well Akt1, 20 ng/well PDK1, 1.25 μM peptide substrat, 50 μM ATP, and phospholipid vesicles (1:20). Test compounds are added from stock solutions in DMSO before activation of Akt1 by PDK1. After the incubation the beads (IMAP binding reagent; Molecular Devices; 1:167) are added and the fluorescence polarization is measured (excitation 485 nm, emission 530 nm).

For series [4], the target named is T2, full-length Akt1 (active) (Homo sapiens, UniProt P31749).
T2 construct: recombinant full-length human Akt1, containing N-terminal His6 tag; His6 (N); GST (N); purchased Upstate, UK #14-276; host or cells: baculovirus infected Sf21 insect cells
Kind of series: Biochemical Akt1 assay (full-length Akt1 active, flashplate, Crosstide). Conditions: 100 nM ATP, Crosstide substrate; read-out: Akt1 inhibition (full-length Akt1, active): IC50. The source says: For the biochemical Akt1 assay recombinant full-length human Akt1, containing N-terminal His6 tag is cloned and expressed in baculovirus infected Sf21 insect cells. Akt1 is activated with GST-MAPKAP-K2 and PDK1, and repurified on Ni2+/NTA-agrose and glutathioneagarose (Upstate, UK; #14-276).
In order to study the inhibition of Akt1 (full-length version) according to the invention, a flashplate-based assay has been developed.
The full-length Akt1 assay is a biochemical assay using Akt1 N-terminally fused to GST and co-expressed with PDKI in insect cells. The Akt1 assay is run in 96 well plates by incubating 500 ng/well GST-Akt1, 1 μM Crosstide (N-terminally biotinylated synthetic peptide (KGSGSGRPRTSSFAEG) Upstate, #12-385) as substrate, 10 μl of test compound (test compounds were dissolved as 10 mM solutions in dimethylsulfoxide (DMSO) and subsequently diluted) and 100 nM ATP (including ^33P-ATP) in 100 μl of reaction buffer (50 mM HEPES, pH7,5; 3 mM MgCl2; 3 mM MnCl2; 3 μM Na-Orthovanadat; 1 mM DTT; 1 μg/ml PEG8000) for 60 minutes at 30° C. in 96 well microtiter plates. The reactions are terminated by adding 100 μl stopping buffer (5M NaCl, 35 mM EDTA pH 8.0) for 5 minutes. 190μl of the reaction mixture are transferred into streptavidin-coated Flashplates (Perkin Elmer, #SMP-103) and incubated for further 30 minutes at room temperature. The plates are washed 3 times by using washing buffer (0.9% NaCl). Relying on the incorporation of ^33P into the peptide substrate crosstide, the detection is based on the specific binding of the biotinylated peptide to the streptavidin-coated surface of scintillator-coated flash plates (NEN, USA; #SMP-103). This phosphorylation is measured by counting the plate for 60 sec. using a plate reader (Wallac Microbeta; Perkin Elmer, USA).

For the next series, the target named is T3, GST-ΔPH-Akt1 (Homo sapiens, UniProt P31749).
T3 construct: named GST-deltaPH-Akt1; 107-480aa; cloned in the pAcGl vector; GST (N); made in house; host or cells: SF9 insect cells (baculovirus vector pAcG1), co-expressed with PDK1
Kind of series: Biochemical ΔPH Akt1 assay (flashplate, 33P incorporation into histone 2B). To be noted: 100 nM ATP, histone 2B substrate; read-out: ΔPHAkt1 inhibition: IC50. The gist of the method: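 The enzyme was GST-fused human Akt1 lacking the PH domain (aa 107–480), co-expressed with PDK1 in Sf9 cells, at 100 ng/well, with 100 ng/well histone 2B substrate and 100 nM ATP including 33P-ATP. 33P incorporation was counted on scintillant-coated flashplates.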

Another series has as its target T4, PKA (Homo sapiens, UniProt P17612).
T4 construct: His; purchased PanVera, USA #R3791; host or cells: E. coli
Kind of series: Biochemical PKA assay (flashplate). To be noted: 100 nM ATP; read-out: PKA inhibition: −log IC50 (converted). The method, then: For the biochemical PKA assay the catalytic subunit of PKA is expressed in E. coli as a His-tagged human recombinant protein and purified accordingly (PanVera, USA; #R3791).
In order to study the kinase inhibition activity of the compounds according to the invention, a flashplate-based assay has been developed for the serine/threonine kinase, PKA. The assay is run in 96 well plates by incubating 1 ng/well His-PKA (PanVera, USA; #R3791), 0.5 μM/well PKA peptide (#12-394; Upstate, USA) as substrate, 10 μl of compound of invention (test compounds were dissolved as 10 mM solutions in dimethylsulfoxide (DMSO) and subsequently diluted) and 100 nM ATP (including ^33P-ATP) in 100 μl of reaction buffer ([…], pH7,5; 3 mM MgCl2; 3 mM MnCl2; 3 μM Na-Orthovanadat; 1 mM DTT) for 80 minutes at 22° C. The reactions are stopped by adding 100 μl stopping buffer (2% H3PO4 for 5 minutes) and are washed 3 times by using washing buffer (200 μl 1×PBS). Relying on the incorporation of ^33P into the peptide substrate, the detection is based on the adhesion of the phosphorylated peptide to the surface of scintillator-coated Flash plates (Perkin Elmer, USA; #SMP-103). This phosphorylation is measured by counting the plate for 60 sec. using a plate reader (Wallac Microbeta; Perkin Elmer, USA). By using this method the IC50 of the PKA inhibition is determined.

Series [5] concerns MDA-MB-468 cells. The experiment in a line: Cellular proliferation/cytotoxicity assay (Alamar Blue), MDA-MB-468. Conditions: Homo sapiens, MDA-MB-468, 48 h, read-out: Anti-proliferative/cytotoxic activity: IC50 MDA468.
Series [6] deals with MCF7 cells. The experiment in a line: Cellular proliferation/cytotoxicity assay (Alamar Blue), MCF7. To be noted: Homo sapiens, MCF7, 48 h, read-out: Anti-proliferative/cytotoxic activity: IC50 MCF7.

pIC50: −log10 of the molar value. Like-named read-outs stand apart in the source and are kept apart here. Bounds are passed on as bounds.

T3 sequence (P31749 107-480, stated change not applied): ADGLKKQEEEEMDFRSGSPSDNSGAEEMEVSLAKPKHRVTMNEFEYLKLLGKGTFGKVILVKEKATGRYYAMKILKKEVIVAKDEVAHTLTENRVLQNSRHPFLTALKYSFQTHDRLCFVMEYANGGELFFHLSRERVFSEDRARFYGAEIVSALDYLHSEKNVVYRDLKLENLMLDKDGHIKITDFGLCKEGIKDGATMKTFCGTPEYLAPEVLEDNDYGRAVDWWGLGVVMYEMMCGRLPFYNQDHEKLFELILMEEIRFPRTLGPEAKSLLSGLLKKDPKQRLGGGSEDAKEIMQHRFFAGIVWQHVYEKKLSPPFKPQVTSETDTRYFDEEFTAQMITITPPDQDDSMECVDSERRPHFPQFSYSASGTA
T2 sequence (P31749 whole entry): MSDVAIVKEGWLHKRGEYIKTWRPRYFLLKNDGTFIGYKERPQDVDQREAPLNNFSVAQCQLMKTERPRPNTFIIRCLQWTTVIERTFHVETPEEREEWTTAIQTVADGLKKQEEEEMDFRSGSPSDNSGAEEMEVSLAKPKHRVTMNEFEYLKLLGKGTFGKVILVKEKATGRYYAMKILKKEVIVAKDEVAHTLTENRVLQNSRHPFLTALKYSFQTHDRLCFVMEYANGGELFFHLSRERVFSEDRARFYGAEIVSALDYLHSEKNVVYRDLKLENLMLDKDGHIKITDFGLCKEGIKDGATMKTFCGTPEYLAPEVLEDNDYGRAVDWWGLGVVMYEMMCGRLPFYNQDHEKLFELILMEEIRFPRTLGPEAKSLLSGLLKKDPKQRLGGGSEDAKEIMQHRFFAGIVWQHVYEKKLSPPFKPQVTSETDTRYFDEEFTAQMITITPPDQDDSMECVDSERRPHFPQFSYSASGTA
T1 sequence (P31749 whole entry): as above

As for “Aminomethyl-N-(4-{5-[6-(2-hydroxy-ethoxy)-naphthalen-2-yl]-pyrazolo[1,5-c]pyrimidin-7-ylamino}-phenyl)-benzamide [Example 50]”, the pIC50 in the series on MCF7 cells [1] was not below 4.77; in the series on MDA-MB-468 cells [2], not below 4.87.

In the case of `Cn1cc(-c2ccc(-c3cc4ccnn4c(Nc4ccc(NC(=O)c5ccc(CN)cc5)cc4)n3)cc2)cn1` [Example 61, 4-Aminomethyl-N-(4-{5-[4-(1-methyl-1H-pyrazol-4-yl)-phenyl]-pyrazolo[1,5-c]pyrimidin-7-ylamino}-phenyl)-benzamide], the pIC50 in series [3] was not below 5.30; in series [4] it was not below 5.39; on GST-ΔPH-Akt1 it was not below 5.76; in the series with MDA-MB-468 cells [5], not below 4.87; in the series on MCF7 cells [6], not below 4.77. On PKA, the IC50 is 6.31 to 100 µM.

On to `NCc1cncc(C(=O)Nc2ccc(Nc3nc(-c4cccc5c4oc4ccccc45)cc4ccnn34)cc2)c1` [Example 52, 5-Aminomethyl-N-[4-(5-dibenzofuran-4-yl-pyrazolo[1,5-c]pyrimidin-7-ylamino)-phenyl]-nicotinamide], for which the pIC50 was not below 5.76 on GST-ΔPH-Akt1, not below 4.87 in the series on MDA-MB-468 cells [5] and not below 4.77 in the series with MCF7 cells [6]. The IC50 on PKA was more than 100 µM.

Turning to `NCCC(C(=O)Nc1ccc(Nc2nc(-c3cccc4c3oc3ccccc34)cc3ccnn23)cc1)c1ccc(Cl)c(Cl)c1` (racemic) [Example 43, rac-4-Amino-N-[4-(5-dibenzofuran-4-yl-pyrazolo[1,5-c]pyrimidin-7-ylamino)-phenyl]-2-(3,4-dichloro-phenyl)-butyramide], the values for the pIC50 at GST-ΔPH-Akt1, with MDA-MB-468 cells [5] and in the series on MCF7 cells [6] were not below 5.76, not below 4.87 and not below 4.77, respectively. The concentration for half-maximal inhibition (IC50) on PKA is 6.31 to 100 µM.

For the compound `CNCc1ccc(C(=O)Nc2ccc(Nc3nc(-c4cccc5c4oc4ccccc45)cc4ccnn34)cc2)cc1` [Example 33, N-[4-(5-Dibenzofuran-4-yl-pyrazolo[1,5-c]pyrimidin-7-ylamino)-phenyl]-4-methylaminomethyl-benzamide], the pIC50 on GST-ΔPH-Akt1 was not below 5.76; in the series with MDA-MB-468 cells [5], not below 4.87; with MCF7 cells [6], not below 4.77. In addition, the IC50 at PKA is more than 100 µM.

Take `CCOc1ccc2cc(-c3cc4ccnn4c(Nc4ccc(NC(=O)c5ccc(CN)cc5)cc4)n3)ccc2c1` [Example 46, 4-Aminomethyl-N-{4-[5-(6-ethoxy-naphthalen-2-yl)-pyrazolo[1,5-c]pyrimidin-7-ylamino]-phenyl}-benzamide]: the pIC50 on GST-ΔPH-Akt1 was not below 5.76; in the series with MDA-MB-468 cells [5], not below 4.87; in the series on MCF7 cells [6], not below 4.77. For the same compound, on PKA, the IC50 was more than 100 µM.

Values taken from US7745446B2, “Pyrazolo[1,5-c]pyrimidines” (Bayer Schering Pharma Aktiengesellschaft, priority 2004, dated 2010).
